≈ marks a conversion by molar mass, not a printed value. Calls of active or inactive are those of the source. No cut-off for these calls is given here.
Key:
[1] = system: Mycobacterium tuberculosis; assay: Antimycobacterial activity against Mycobacterium tuberculosis clinical isolate assessed as growth inhibition after 5 days by microplate Alamar blue assay; assay type: functional; settings: 120 h
[2] = Half life in po dosed Wistar rat plasma
[3] = system: Mycobacterium tuberculosis; assay: Antimycobacterial activity against Mycobacterium tuberculosis clinical isolate assessed as growth inhibition after 28 days; assay type: functional, organism-based
[4] = system: Mycobacterium tuberculosis; assay: Antimycobacterial activity against Mycobacterium tuberculosis H37Rv […] assessed as confluent growth at 50 ug/ml after 28 days by Lowenstein-Jensen method; assay type: functional, organism-based
[5] = system: Mycobacterium tuberculosis; assay: Antimycobacterial activity against Mycobacterium tuberculosis H37Rv […] assessed as confluent growth at 200 ug/ml after 28 days by Lowenstein-Jensen method; assay type: functional, organism-based
[6] = system: Mycobacterium tuberculosis; assay: Antimycobacterial activity against Mycobacterium tuberculosis H37Rv […] assessed as bacterial colonies at 50 ug/ml after 28 days by Lowenstein-Jensen method; assay type: functional
[7] = system: Mycobacterium tuberculosis; assay: Antimycobacterial activity against Mycobacterium tuberculosis H37Rv […] assessed as bacterial colonies at 200 ug/ml after 28 days by Lowenstein-Jensen method; assay type: functional
[8] = molecular target: Neuronal acetylcholine receptor; alpha4/beta2 (Homo sapiens) (UniProt P17787+P43681); assay: Displacement of [3H]cytisine from human recombinant alpha4beta2 nACh receptor expressed in human SH-SY5Y cells at 1 X 10^-8 M to 1 X 10^-7 M; assay type: cell-based
[9] = system: Mycobacterium tuberculosis; assay: Antimycobacterial activity against Mycobacterium tuberculosis H37Rv […] assessed as growth inhibition at 40 ug/ml after 28 days by Lowenstein-Jensen method; assay type: functional, organism-based
[10] = Cmax in Wistar rat at 5 mg/kg, po; assay type: ADME, organism-based; design: dose 5 mg/kg, route oral; settings: in vivo
[11] = Tmax in Wistar rat at 5 mg/kg, po; assay type: ADME, organism-based; settings: in vivo
[12] = Half life in Wistar rat at 5 mg/kg, po; assay type: ADME, organism-based; settings: in vivo
Rattus norvegicus = assay: Volume of distribution in Wistar rat at 5 mg/kg, po; assay type: ADME, organism-based; settings: in vivo
[13] = Cmax in Wistar rat at 5 mg/kg, iv; assay type: ADME, organism-based; design: dose 5 mg/kg, route intravenous; settings: in vivo
[14] = Tmax in Wistar rat at 5 mg/kg, iv; assay type: ADME, organism-based; settings: in vivo
[15] = Half life in Wistar rat at 5 mg/kg, iv; assay type: ADME, organism-based; settings: in vivo
[16] = Volume of distribution in Wistar rat at 5 mg/kg, iv; assay type: ADME, organism-based; settings: in vivo
[17] = Acute toxicity in po dosed overnight fasted Wistar rat; assay type: organism-based; settings: in vivo
[18] = Toxicity in Wistar rat administered qd via oral gavage with repeated dose for 28 days; assay type: organism-based; settings: in vivo
[19] = system: Mycobacterium tuberculosis; assay: Antimycobacterial activity against Mycobacterium tuberculosis H37Rv […] assessed as growth inhibition at 0.2 ug/ml after 28 days by Lowenstein-Jensen method; assay type: functional, organism-based

| Structure (SMILES) | Activity [3] | growth inhibition (GI) [4] | growth inhibition (GI) [5] | Activity [7] | inhibition [8] | further results |
| --- | --- | --- | --- | --- | --- | --- |
| CN1CCC(C(=O)c2cncc(-c3cc(Cl)ccc3Cl)c2)C1=O (stereo not given) |  |  |  |  |  | MIC [1]: 0.286 µM (≈ 100 ng/mL) |
| CN1CCC(C(=O)c2cncc(-c3ccc(Cl)c(Cl)c3)c2)C1=O (stereo not given) |  |  |  |  |  | MIC [1]: 0.179 µM (≈ 62.5 ng/mL) |
| CN1CCC[C@H]1c1cccnc1 [NICOTINE] |  |  |  |  |  | half-life [2]: 120 min |
| CN1CCC(C(=O)c2cncc(-c3cccc(N)c3)c2)C1=O (stereo not given) | inactive | inactive | inactive |  |  |  |
| CC(=O)Oc1ccc(-c2cncc(C(=O)C3CCN(C)C3=O)c2)cc1 (stereo not given) | inactive |  |  | >100 | inactive | Activity [6]: >100 |
| CCCCc1cncc(C(=O)C2CCN(C)C2=O)c1 (stereo not given) | inactive | inactive | inactive |  | inactive |  |
| CO[C@H]1/C=C/O[C@@]2(C)Oc3c(C)c(O)c4c(O)c(c(/C=N/N5CCN(C)CC5)c(O)c4c3C2=O)NC(=O)/C(C)=C\C=C\[C@H](C)[C@H](O)[C@@H](C)[C@@H](O)[C@@H](C)[C@H](OC(C)=O)[C@@H]1C |  |  |  |  |  | growth inhibition (GI) [9]: Active |
| CN1CCC(C(=O)c2cncc(-c3ccc(F)cc3)c2)C1=O (stereo not given) | inactive | inactive | inactive |  | inactive |  |
| CN1CCC(C(=O)c2cncc(-c3ccc(Cl)cc3Cl)c2)C1=O (stereo not given) |  |  |  |  |  | MIC [1]: 0.00286 µM (≈ 0.999 ng/mL) |
| CN1CCC(C(=O)c2cncc(-c3ccc4ccccc4c3)c2)C1=O (stereo not given) | inactive | inactive |  | >100 |  |  |
| CN1CCC(C(=O)c2cncc(-c3cccc(O)c3)c2)C1=O (stereo not given) | inactive | inactive | inactive |  | inactive |  |
| CN1CCC(C(=O)c2cncc(-c3cc(Cl)cc(Cl)c3)c2)C1=O (stereo not given) | inactive |  |  | >100 | inactive | Activity [6]: >100; MIC [1]: 0.0286 µM (≈ 10 ng/mL); Cmax [10]: 2860 ng/mL; Tmax [11]: 1 h; half-life [12]: > 1440 min; Vd (Rattus norvegicus): 27.36 L; Cmax [13]: 3370 ng/mL; Tmax [14]: 3 min; half-life [15]: 1440 min; Vd [16]: 23.2 L; LD50 [17]: > 2000 mg/kg; LD50 at 672 h [18]: > 2000 mg/kg |
| NNC(=O)c1ccncc1 [ISONIAZID] |  |  |  |  |  | MIC [1]: 0.00145 µM (≈ 0.199 ng/mL); growth inhibition (GI) [19]: Active |
| Cc1ccc(-c2cncc(C(=O)C3CCN(C)C3=O)c2)cc1 (stereo not given) | inactive | inactive | inactive |  |  |  |
| COc1cccc(-c2cncc(C(=O)C3CCN(C)C3=O)c2)c1 (stereo not given) | inactive | inactive | inactive |  | inactive |  |
| COc1ccc(-c2cncc(C(=O)C3CCN(C)C3=O)c2)cc1 (stereo not given) | inactive | inactive |  | >100 | inactive |  |

| Structure (SMILES) | Activity [3] | growth inhibition (GI) [4] | growth inhibition (GI) [5] | Activity [7] | inhibition [8] | further results |
| --- | --- | --- | --- | --- | --- | --- |
| CN1CCC(C(=O)c2cncc(-c3cccc4ccccc34)c2)C1=O (stereo not given) | inactive | inactive | inactive |  |  |  |
| CN1CCC(C(=O)c2cncc(-c3cccc(Cl)c3Cl)c2)C1=O (stereo not given) |  |  |  |  |  | MIC [1]: 0.0093 µM (≈ 3.25 ng/mL) |
| CN1CCC(C(=O)c2cncc(-c3cccc([N+](=O)[O-])c3)c2)C1=O (stereo not given) | inactive | inactive |  | >100 | inactive |  |
| CN1CCC(C(=O)c2cncc(-c3ccc(Cl)cc3)c2)C1=O (stereo not given) | inactive | inactive | inactive |  |  |  |
| CC(=O)c1ccc(-c2cncc(C(=O)C3CCN(C)C3=O)c2)s1 (stereo not given) | inactive | inactive | inactive |  | inactive |  |
| COc1ccccc1-c1cncc(C(=O)C2CCN(C)C2=O)c1 (stereo not given) | inactive | inactive | inactive |  |  |  |
| CN1CCC(C(=O)c2cncc(-c3cccc(C=O)c3)c2)C1=O (stereo not given) | inactive | inactive | inactive | >100 | inactive |  |
| CC(=O)c1cccc(-c2cncc(C(=O)C3CCN(C)C3=O)c2)c1 (stereo not given) | inactive | inactive |  | >100 |  |  |
| CN1CCC(C(=O)c2cncc(-c3ccccc3)c2)C1=O (stereo not given) | inactive | inactive | inactive |  | < 10% |  |
| CN1CCC(C(=O)c2cncc(-c3ccccc3Cl)c2)C1=O (stereo not given) | inactive | inactive |  | >100 |  |  |
| CN1CCC(C(=O)c2cncc(-c3cccc(F)c3)c2)C1=O (stereo not given) | inactive | inactive | inactive |  |  |  |
| CN1CCC(C(=O)c2cncc(C3CC3)c2)C1=O (stereo not given) | inactive | inactive | inactive |  | inactive |  |
| Cc1ccccc1-c1cncc(C(=O)C2CCN(C)C2=O)c1 (stereo not given) | inactive | inactive | inactive |  |  |  |
| Cc1cccc(-c2cncc(C(=O)C3CCN(C)C3=O)c2)c1 (stereo not given) | inactive |  |  | >100 | < 10% | Activity [6]: >100 |
| CN1CCC(C(=O)c2cncc(-c3ccc(C=O)cc3)c2)C1=O (stereo not given) | inactive | inactive |  | >100 |  |  |
